Several values for one entry are separate records, joined by “and”; a condition that tells them apart may be missing. Identical values can stand only once. Entries after “also recorded” stand apart in the source; their conditions may differ.
Assays:
mAC5 = target: T1, mAC5 (Homo sapiens, UniProt O95622); test: AC assay, Gsα-stimulated mAC5 in membranes from transfected HEK293 cells; format: biochemical; details: for activity [%] (100% = 300nM Gsα stimulation): mAC5
T1 construct: Human mAC genes were from GenScript and fitted with a C-terminal FLAG-tag; FLAG (C); made in house; host or cells: HEK293, permanently transfected; membrane preparation
T1 sequence (O95622 whole entry): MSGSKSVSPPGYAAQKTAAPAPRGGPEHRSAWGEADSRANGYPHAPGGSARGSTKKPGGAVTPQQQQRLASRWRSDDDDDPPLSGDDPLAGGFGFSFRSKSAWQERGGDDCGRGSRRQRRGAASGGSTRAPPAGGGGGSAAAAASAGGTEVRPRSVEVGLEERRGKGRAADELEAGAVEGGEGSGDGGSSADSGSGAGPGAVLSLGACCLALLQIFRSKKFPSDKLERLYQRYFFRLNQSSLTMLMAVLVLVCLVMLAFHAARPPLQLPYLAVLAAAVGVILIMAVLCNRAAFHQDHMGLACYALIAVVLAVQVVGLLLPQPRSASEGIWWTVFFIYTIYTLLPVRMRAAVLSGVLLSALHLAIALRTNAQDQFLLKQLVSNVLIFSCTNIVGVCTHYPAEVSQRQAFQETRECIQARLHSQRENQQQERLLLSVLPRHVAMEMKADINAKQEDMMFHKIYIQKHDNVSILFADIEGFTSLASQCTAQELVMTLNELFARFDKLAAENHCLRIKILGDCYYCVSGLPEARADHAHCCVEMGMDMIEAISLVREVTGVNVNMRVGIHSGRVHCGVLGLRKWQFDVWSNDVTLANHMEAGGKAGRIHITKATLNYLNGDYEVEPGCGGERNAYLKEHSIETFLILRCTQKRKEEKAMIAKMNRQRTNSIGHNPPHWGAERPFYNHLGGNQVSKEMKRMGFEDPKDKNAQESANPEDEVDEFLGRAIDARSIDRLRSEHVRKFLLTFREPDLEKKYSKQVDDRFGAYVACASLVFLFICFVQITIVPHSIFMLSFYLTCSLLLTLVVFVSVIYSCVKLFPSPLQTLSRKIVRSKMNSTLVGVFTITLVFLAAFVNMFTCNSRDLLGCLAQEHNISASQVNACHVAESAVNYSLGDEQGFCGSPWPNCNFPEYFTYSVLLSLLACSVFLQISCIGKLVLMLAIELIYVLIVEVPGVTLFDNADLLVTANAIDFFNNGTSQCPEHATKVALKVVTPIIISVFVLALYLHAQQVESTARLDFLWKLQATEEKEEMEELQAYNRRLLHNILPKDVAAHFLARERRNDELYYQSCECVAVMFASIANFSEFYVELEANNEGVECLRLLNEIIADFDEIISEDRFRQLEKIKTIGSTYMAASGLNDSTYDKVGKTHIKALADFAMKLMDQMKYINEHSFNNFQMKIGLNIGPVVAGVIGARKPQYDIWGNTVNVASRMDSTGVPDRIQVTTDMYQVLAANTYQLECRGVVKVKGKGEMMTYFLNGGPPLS
Procedure, shortened: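 cAMP formation was quantified by HTRF against a cAMP standard curve, with EC50 or IC50 derived by curve fitting. Reactions contained 1 mM ATP, 2 mM MgCl2, 3 mM creatine phosphate, 60 μg/ml creatine kinase and 50 mM MOPS pH 7.5, using membranes of stably transfected HEK293 cells carrying FLAG-tagged human AC.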

[1] = target: T2, HEK293 cells permanently transfected with mAC3 (Homo sapiens, UniProt O60266); test: cAMP accumulation assay, isoproterenol-stimulated HEK-mAC3 cells; format: cell-based; details: for Effect on isoproterenol-stimulated cAMP formation in HEK-mAC3: in words
T2 construct: Human mAC genes were from GenScript and fitted with a C-terminal FLAG-tag; FLAG (C); expressed in transfected cells; host or cells: HEK293, permanently transfected
T2 sequence (O60266 1-1144): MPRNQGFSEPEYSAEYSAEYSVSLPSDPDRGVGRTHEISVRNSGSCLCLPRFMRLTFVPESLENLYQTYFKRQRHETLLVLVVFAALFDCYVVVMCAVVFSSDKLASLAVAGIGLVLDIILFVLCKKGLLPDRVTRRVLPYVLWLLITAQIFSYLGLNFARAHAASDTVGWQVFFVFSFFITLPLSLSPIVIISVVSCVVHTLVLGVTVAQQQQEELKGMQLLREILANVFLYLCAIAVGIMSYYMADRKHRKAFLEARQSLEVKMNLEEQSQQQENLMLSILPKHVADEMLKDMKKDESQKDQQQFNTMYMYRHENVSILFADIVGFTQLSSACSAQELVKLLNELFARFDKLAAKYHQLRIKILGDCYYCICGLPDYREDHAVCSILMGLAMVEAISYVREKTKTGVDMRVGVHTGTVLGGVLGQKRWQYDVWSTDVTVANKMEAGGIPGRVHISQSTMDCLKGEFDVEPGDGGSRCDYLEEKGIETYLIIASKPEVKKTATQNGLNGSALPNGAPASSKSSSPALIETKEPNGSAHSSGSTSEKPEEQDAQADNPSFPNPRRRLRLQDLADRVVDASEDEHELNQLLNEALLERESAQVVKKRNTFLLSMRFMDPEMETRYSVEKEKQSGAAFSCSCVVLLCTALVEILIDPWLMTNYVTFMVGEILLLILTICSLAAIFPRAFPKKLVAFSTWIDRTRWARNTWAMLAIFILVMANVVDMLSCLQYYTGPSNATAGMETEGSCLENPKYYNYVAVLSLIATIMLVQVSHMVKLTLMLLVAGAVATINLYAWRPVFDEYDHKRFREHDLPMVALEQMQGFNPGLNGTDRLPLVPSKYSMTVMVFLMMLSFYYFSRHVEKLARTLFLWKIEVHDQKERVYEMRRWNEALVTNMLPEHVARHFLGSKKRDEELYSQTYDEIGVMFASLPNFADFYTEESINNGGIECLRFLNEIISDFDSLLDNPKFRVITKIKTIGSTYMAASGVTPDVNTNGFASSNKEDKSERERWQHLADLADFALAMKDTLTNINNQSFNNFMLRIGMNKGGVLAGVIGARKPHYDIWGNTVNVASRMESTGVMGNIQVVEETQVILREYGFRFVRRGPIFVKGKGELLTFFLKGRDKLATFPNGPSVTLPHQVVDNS
Description: hAC sequences were from NCBI were: ADCY1: NM_021116.3; ADCY2: NM_020546.2; ADCY3: NM_004036.4; ADCY4: NM_001198568.2; ADCY5: NM_183357.2; ADCY6: NM_015270.4; ADCY7: NM_001114.4; ADCY8: NM_001115.2; ADCY9: NM_001116.3. Human mAC genes were from GenScript and fitted with a C-terminal FLAG-tag. […] The gene was synthesized by GenScript. HEK293 cells were maintained in Dulbeccos Modified Eagle Medium (DMEM) with 10% fetal bovine serum at 37°C and 5% CO2. Transfection with AC plasmids was with PolyJet (SignaGen, Frederick, MD, USA). Permanent cell lines were generated by selection for 7 days with 600 µg/ml G418 and maintained with 300 µg/ml For membrane preparation, cells were tyrpsinized, collected by centrifugation (3000 × g, 5 min) and lysed and homogenized in 20 mM HEPES, pH 7.5, 1 mM Ethylenediaminetetraacetic acid (EDTA), 2 mM MgCl2, 1 mM Dithiothreitol (DTT), one tablet of cOmplete, EDTA-free (per 50 ml) and 250 mM sucrose by 20 strokes in a potter homogenizer on ice. Debris was removed (5 min at 1000 × g, 0°C), membranes were collected at 100,000 × g, 60 min at 0°C, suspended and stored at −80°C in 20 mM MOPS, pH 7.5, 0.5 mM EDTA, 2 mM MgCl2. […] Three cerebral cortices were dissected and homogenized in 4.5 ml cold 48 mM Tris–HCl, pH 7.4, 12 mM MgC1_2, and 0.1 mM Ethylene glycol-bis(β-aminoethyl ether)-N,N,N′,N′-tetraacetic acid (EGTA) with a Polytron hand disperser (Kinematica AG, Switzerland). […] The pellet was washed once with 5 ml 1 mM KHCO3. The final suspension in 2 ml 1 mM KHCO3 was stored in aliquots at −80°C.
HEK293 cells stably expressing mAC isoforms 3, 5, and mAC5(membr)_mAC3(cat) were plated at 2500–10,000 cells/well into 384-well plates. […] Addition of Cisbio HTRF detection reagents stopped the reaction and cAMP levels were determined.

[2] = fatty acid 1 µM, individual experiments
[3] = fatty acid 3 µM, individual experiments
[4] = fatty acid 6 µM, individual experiments
[5] = fatty acid 10 µM, individual experiments
[6] = fatty acid 20 µM, individual experiments

CCCCCCCCCCCCCCCCCC(=O)O [Stearic acid, Stearic (octadecanoic) acid]
mAC5 activity [%] (100% = 300nM Gsα stimulation) (mAC5; 20µM fatty acid concentration): 73% and 93% and 77%
mAC5 activity [%] (100% = 300nM Gsα stimulation) (mAC5; fatty acid 0.5 µM, individual experiments): 100%
mAC5 activity [%] (100% = 300nM Gsα stimulation) (mAC5; [2]): 134% and 72%
mAC5 activity [%] (100% = 300nM Gsα stimulation) (mAC5; [3]): 73% and 80% and 162%
mAC5 activity [%] (100% = 300nM Gsα stimulation) (mAC5; [4]): 124% and 75% and 108% and 125%
mAC5 activity [%] (100% = 300nM Gsα stimulation) (mAC5; [5]): 73% and 93% and 77%
mAC5 activity [%] (100% = 300nM Gsα stimulation) (mAC5; [6]): 80% and 91% and 83%
Effect on isoproterenol-stimulated cAMP formation in HEK-mAC3 [1]: inactive

CCCCC/C=C\C/C=C\C/C=C\C/C=C\CCCC(=O)NCCO [Anandamide, arachidonoylethanolamide]
IC50 (mAC5; attenuation of 300 nM Gsα-stimulated activity): 42 µM
activity [%] (100% = 300nM Gsα stimulation) (mAC5; 100µM Anandamide concentration, Figure 9 D): 55% and 58% and 70% and 40% and 56% and 45% and 65% and 60%
activity [%] (100% = 300nM Gsα stimulation) (mAC5; Anandamide 0.1 µM): 100%
activity [%] (100% = 300nM Gsα stimulation) (mAC5; Anandamide 0.5 µM): 96% and 115% and 93% and 114% and 127%
activity [%] (100% = 300nM Gsα stimulation) (mAC5; Anandamide 3 µM): 122% and 77%
activity [%] (100% = 300nM Gsα stimulation) (mAC5; Anandamide 8 µM): 101%
activity [%] (100% = 300nM Gsα stimulation) (mAC5; Anandamide 10 µM): 99%
activity [%] (100% = 300nM Gsα stimulation) (mAC5; Anandamide 35 µM): 78% and 77% and 119%
activity [%] (100% = 300nM Gsα stimulation) (mAC5; Anandamide 40 µM): 58% and 74%
activity [%] (100% = 300nM Gsα stimulation) (mAC5; Anandamide 80 µM): 47%
Effect on isoproterenol-stimulated cAMP formation in HEK-mAC3 [1]: no effect

CCCCCCCC/C=C\CCCCCCCC(=O)O [Oleic acid, Oleic ((9Z)-octadecenoic) acid]
mAC5 activity [%] (100% = 300nM Gsα stimulation) (mAC5; 20µM fatty acid concentration): 93% and 117% and 135% and 138%
Effect of lipid on Gsα-stimulated mAC5 (mAC5; 20 µM, in words): not enhanced; also recorded: unaffected
mAC activity [%] (100% = 300nM Gsα stimulation); 20µM Oleic acid concentration, mAC5 (mAC5; Figure 5 A, 20 µM oleic acid, 300 nM Gsα): 135% and 138% and 161% and 84% and 105% and 93% and 117%
activity, mAC5 + 20µM Oleic acid (mAC5; Gsα 30 nM): 0.080 cAMP nmol/mg/min
activity, mAC5 + 20µM Oleic acid (mAC5; Gsα 60 nM): 0.233 cAMP nmol/mg/min and 0.334 cAMP nmol/mg/min
activity, mAC5 + 20µM Oleic acid (mAC5; Gsα 100 nM): 0.353 cAMP nmol/mg/min and 0.362 cAMP nmol/mg/min
activity, mAC5 + 20µM Oleic acid (mAC5; Gsα 300 nM): 0.752 cAMP nmol/mg/min and 1.165 cAMP nmol/mg/min
activity, mAC5 + 20µM Oleic acid (mAC5; Gsα 450 nM): 1.160 cAMP nmol/mg/min and 1.405 cAMP nmol/mg/min
activity, mAC5 + 20µM Oleic acid (mAC5; Gsα 600 nM): 1.213 cAMP nmol/mg/min and 1.684 cAMP nmol/mg/min
activity, mAC5 + 20µM Oleic acid (mAC5; Gsα 800 nM): 1.245 cAMP nmol/mg/min and 1.702 cAMP nmol/mg/min
activity, mAC5 + 20µM Oleic acid (mAC5; Gsα 1000 nM): 1.415 cAMP nmol/mg/min and 1.818 cAMP nmol/mg/min
mAC5 activity [%] (100% = 300nM Gsα stimulation) (mAC5; [2]): 126% and 196% and 115% and 78% and 64%
mAC5 activity [%] (100% = 300nM Gsα stimulation) (mAC5; [3]): 142% and 91% and 87%
mAC5 activity [%] (100% = 300nM Gsα stimulation) (mAC5; [4]): 146% and 127% and 77% and 90%
mAC5 activity [%] (100% = 300nM Gsα stimulation) (mAC5; [5]): 126% and 140% and 134% and 93%
mAC5 activity [%] (100% = 300nM Gsα stimulation) (mAC5; [6]): 93% and 117% and 135% and 138%
activity [%] (100% = 300nM Gsα stimulation) (mAC5; 20µM Oleic acid concentration, Figure 9 C): 161% and 84% and 93% and 117% and 135% and 138%
EC50 ([1]; 2.5 µM isoproterenol): 0.5 µM
enhancement of cAMP formation in HEK-mAC3 ([1]; 2.5 µM isoproterenol): 1.5 fold
AC activity (%); 100%= 2.5µM Isoproterenol stimulation ([1]; HEK-mAC3, oleic acid 0.01 µM): 132%
AC activity (%); 100%= 2.5µM Isoproterenol stimulation ([1]; HEK-mAC3, oleic acid 0.03 µM): 145% and 87%
AC activity (%); 100%= 2.5µM Isoproterenol stimulation ([1]; HEK-mAC3, oleic acid 0.06 µM): 118% and 89%
AC activity (%); 100%= 2.5µM Isoproterenol stimulation ([1]; HEK-mAC3, oleic acid 0.1 µM): 122% and 118% and 127% and 150%
AC activity (%); 100%= 2.5µM Isoproterenol stimulation ([1]; HEK-mAC3, oleic acid 0.3 µM): 130% and 163%
AC activity (%); 100%= 2.5µM Isoproterenol stimulation ([1]; HEK-mAC3, oleic acid 0.5 µM): 140% and 92%
AC activity (%); 100%= 2.5µM Isoproterenol stimulation ([1]; HEK-mAC3, oleic acid 0.6 µM): 135% and 121% and 113% and 161%
AC activity (%); 100%= 2.5µM Isoproterenol stimulation ([1]; HEK-mAC3, oleic acid 3 µM): 190% and 191% and 198% and 119%
AC activity (%); 100%= 2.5µM Isoproterenol stimulation ([1]; HEK-mAC3, oleic acid 10 µM): 199% and 123% and 137% and 198% and 118% and 119%
AC activity (%); 100%= 2.5µM Isoproterenol stimulation ([1]; HEK-mAC3, oleic acid 50 µM): 187% and 186% and 134%

CCCCC/C=C\C/C=C\C/C=C\C/C=C\CCCC(=O)O [Arachidonic acid, Arachidonic ((5Z,8Z,11Z,14Z)-eicosatetraenoic) acid]
mAC5 activity [%] (100% = 300nM Gsα stimulation) (mAC5; 20µM fatty acid concentration): 97% and 73% and 120% and 131% and 110%

Source: PMC11606603, “The membrane domains of mammalian adenylyl cyclases are lipid receptors” (eLife, 2024)
